This is an account of results in patent US20050137223A1, “Glucoimidazole and polyhydroxycyclohexenyl amine derivatives to treat gaucher disease” (Amicus Therapeutics, Inc., priority 2003, published 2005).

The conditions of series [1]: shortly after the start of the treatment; cited from earlier work.
For series [2], the target named is T1, GCase (Homo sapiens, UniProt P04062).
T1 sequence (P04062 40-536): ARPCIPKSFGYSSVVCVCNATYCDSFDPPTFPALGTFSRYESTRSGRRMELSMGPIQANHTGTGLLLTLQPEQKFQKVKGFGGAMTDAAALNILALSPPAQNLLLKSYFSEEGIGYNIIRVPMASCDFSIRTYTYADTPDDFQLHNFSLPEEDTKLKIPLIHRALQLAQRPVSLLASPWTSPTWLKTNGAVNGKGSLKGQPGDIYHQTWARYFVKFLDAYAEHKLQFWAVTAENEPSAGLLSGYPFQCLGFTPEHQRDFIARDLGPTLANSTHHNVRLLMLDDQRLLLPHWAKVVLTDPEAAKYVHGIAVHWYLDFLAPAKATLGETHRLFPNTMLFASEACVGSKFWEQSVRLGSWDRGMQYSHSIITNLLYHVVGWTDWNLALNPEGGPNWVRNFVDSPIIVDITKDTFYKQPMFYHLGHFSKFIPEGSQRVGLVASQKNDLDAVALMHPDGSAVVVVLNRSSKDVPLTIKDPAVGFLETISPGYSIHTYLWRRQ
In words: Inhibitory activity against GCase (4-methylumbelliferyl β-glucoside substrate). The class given is biochemical. As to conditions: for IC50: human GCase, 3 mM 4-MU β-glucoside, pH 5.2, 37° C., 30 min; for increase of inhibitory potency relative to 2-PE-GIZ: phenylethyl group replaced with octyl or dimethylbutyl at the same position. Here is the method:
Methods. […] The compounds were added to each reaction mixture individually at the final concentration indicated. After incubation with the diluted human GCase at 37° C. for 30 min, the reaction was stopped by addition of 0.2 M glycine buffer, pH 10.8, the released 4-methylumbelliferone was determined by a fluoremeter at excitation wavelength of 355 nm and emission wavelength at 460 nm, respectively. The relative enzyme activity was calculated as a percentage to those of reactions without inhibitors. IC50 was calculated using Prism sigmoid plot.

Series [3] concerns the target T1, GCase. The settings on record: literature values (Ogawa et al.); read-out: IC50 against GCase; cited from earlier work.
In series [4] the target is T2, GCase in fibroblasts from Gaucher patients with N370S/N370S mutation (Homo sapiens, UniProt P04062, N409S).
T2 construct: endogenous in cells; host or cells: fibroblasts from Gaucher patients homozygous for N370S
T2 sequence (P04062 40-536 N409S): T1 sequence (P04062 40-536) with N370S
In words: Chaperone activity for GCase in Gaucher patient fibroblasts (residual enzyme activity). The settings on record: cultured with compound for 4 days. The class given is cell-based. On the procedure: Methods. Fibroblasts established from Gaucher patients with N370S/N370S mutation were cultured in DMEM medium supplemented with 10% fetal bovine serum and antibiotics at 37° C. under 5% CO2. The GIZ was added into the culture medium at the final concentrations for 4 days prior to the assay. After washing the cells with phosphate-buffered saline, the cells were harvested and homogenized in the presence of 0.25% (w/v) sodium taurocholate and 0.1% (v/v) Triton X-100 in McIlvaine buffer (pH 5.2, Reaction Buffer), and 10 μl of the lysate was used for the determination of residual enzyme activity. The activity of the GCase was determined with 3 mM 4-MU-β-Glc in the Reaction Buffer at 37° C. for 1 hr as conduritol B epoxide (CBE)-sensitive activity in parallel assays without or with pre-incubation with CBE at 1.25 mM for 30 min at room temperature. Protein concentrations in the cell lysates were determined using micro BCA protein assay kit from Pierce.

Positions count from the first letter of the chain named. Read-outs that look alike come from different tables or passages of the source.

On to `CCCCN1C[C@H](O)[C@@H](O)[C@H](O)[C@H]1CO` [N-butyl 1-deoxynojirimycin (NB-DNJ), N-butyl 1-deoxynojirimycin], for which the “patients with diarrhea (most frequent adverse effect)” value in series [1] is 79%. In the case of `CC(C)(C)CCc1cn2c(n1)[C@H](O)[C@@H](O)[C@H](O)[C@H]2CO` [2-Dimethylbutyl GIZ, (5R,6R,7S,8S)-5-Hydroxymethyl-2-(3,3-dimethylbutyl)-5,6,7,8-tetrahydroimidazo[1,2-a]pyridine-6,7,8-triol], on GCase [2], the IC50 (usually the concentration that gives 50% inhibition) was found to be 0.03 nM and the “increase of inhibitory potency relative to 2-PE-GIZ” value is given as about 37 fold. Turning to `CCCCCCCCc1cn2c(n1)[C@H](O)[C@@H](O)[C@H](O)[C@H]2CO` [2-Octyl GIZ, (5R,6R,7S,8S)-5-Hydroxymethyl-2-n-octyl-5,6,7,8-tetrahydroimidazo[1,2-a]pyridine-6,7,8-triol], on GCase [2], half-maximal inhibition (IC50) required 0.07 nM and the “increase of inhibitory potency relative to 2-PE-GIZ” value is given as “approximately 15 fold”.

As to `CCCCCCCCN[C@@H]1C=C(CO)[C@@H](O)[C@H](O)[C@H]1O` [N-octyl valienamine], at GCase [3], the IC50 is about 300 nM. In turn, `OC[C@@H]1[C@@H](O)[C@H](O)[C@@H](O)c2nc(CCc3ccccc3)cn21` [2-Phenylethyl GIZ, (5R,6R,7S,8S)-5-hydroxymethyl-2-phenethyl-5,6,7,8-tetrahydroimidazo[1,2-a]pyridine-6,7,8-triol] returned an IC50 on GCase [2] of 1.1 nM. As for `OC[C@@H]1[C@@H](O)[C@H](O)[C@@H](O)c2nccn21` [GIZ, (5R,6R,7S,8S)-5-hydroxymethyl-5,6,7,8-tetrahydroimidazo[1,2-a]pyridine-6,7,8-triol], the IC50 against GCase [2] is 87 nM. In series [4], the “increase of residual enzyme activity in patient cells” value was “approximately 2 fold” and the “optimal concentration for the maximum enhancement” value is about 300 µM.
